Measurements as given in ChEMBL document CHEMBL1135944, “Identification of potent and selective oxytocin antagonists. Part 1: indole and benzofuran derivatives” (Bioorg Med Chem Lett, 2002).

Biological target: T1, Oxytocin receptor (Homo sapiens, UniProt P30559)
T1 sequence (P30559 whole entry): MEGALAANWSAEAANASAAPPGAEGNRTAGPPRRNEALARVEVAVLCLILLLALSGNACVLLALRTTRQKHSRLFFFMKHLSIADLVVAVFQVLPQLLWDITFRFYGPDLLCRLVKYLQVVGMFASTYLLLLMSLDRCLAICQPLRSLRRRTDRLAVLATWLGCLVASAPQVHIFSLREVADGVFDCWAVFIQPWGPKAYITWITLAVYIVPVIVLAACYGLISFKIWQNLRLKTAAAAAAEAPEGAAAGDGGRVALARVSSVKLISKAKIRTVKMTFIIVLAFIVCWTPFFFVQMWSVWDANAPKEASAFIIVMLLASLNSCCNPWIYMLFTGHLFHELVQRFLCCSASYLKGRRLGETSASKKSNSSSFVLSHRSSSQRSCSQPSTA
Assay: Ability to displace [3H]oxytocin from human OT receptor (hOT)
Settings: not given

Row | SMILES | Ki [nM]
1 | COc1cc(OC2CCN(C(C)=O)CC2)ccc1C(=O)N1CCC(N2C(=O)OCc3ccccc32)CC1 | 10
2 | CN1CC(=O)N(CC(=O)NCc2cc3cc(C(=O)N4CCC(N5C(=O)OCc6ccccc65)CC4)ccc3o2)C1=O | 3.16
3 | CN1CCC(=O)N(CC(=O)NCc2cc3cc(C(=O)N4CCC(N5C(=O)OCc6ccccc65)CC4)ccc3o2)C1=O | 3.98
4 | O=C(c1ccc2cc[nH]c2c1)N1CCC(N2C(=O)OCc3ccccc32)CC1 | 200
5 | CS(=O)(=O)N1CCN(Cc2cc3cc(C(=O)N4CCC(N5C(=O)OCc6ccccc65)CC4)ccc3o2)CC1 | 63.1
6 | CS(=O)(=O)N1CCC[C@@H]1Cn1ccc2cc(C(=O)N3CCC(N4C(=O)OCc5ccccc54)CC3)ccc21 | 20
7 | CC(=O)NCC(=O)NCc1cc2cc(C(=O)N3CCC(N4C(=O)OCc5ccccc54)CC3)ccc2o1 | 15.8
8 | CC1(C)NC(=O)N(CC(=O)NCc2cc3cc(C(=O)N4CCC(N5C(=O)OCc6ccccc65)CC4)ccc3o2)C1=O | 15.8
9 | CN(CCCn1ccc2cc(C(=O)N3CCC(N4C(=O)OCc5ccccc54)CC3)ccc21)S(C)(=O)=O | 158
10 | CS(=O)(=O)NCCn1ccc2cc(C(=O)N3CCC(N4C(=O)OCc5ccccc54)CC3)ccc21 | 316
11 | O=C(c1ccc2occc2c1)N1CCC(N2C(=O)OCc3ccccc32)CC1 | 251
12 | CC(=O)N1CCN(Cc2cc3cc(C(=O)N4CCC(N5C(=O)OCc6ccccc65)CC4)ccc3o2)CC1 | 79.4
13 | CC(=O)N1CCC[C@@H]1Cn1ccc2cc(C(=O)N3CCC(N4C(=O)OCc5ccccc54)CC3)ccc21 | 158
14 | CC(=O)N(C)CCn1ccc2cc(C(=O)N3CCC(N4C(=O)OCc5ccccc54)CC3)ccc21 | 63.1
15 | Cc1c[nH]c2ccc(C(=O)N3CCC(N4C(=O)OCc5ccccc54)CC3)cc12 | 794
16 | Cn1ccc2cc(C(=O)N3CCC(N4C(=O)OCc5ccccc54)CC3)ccc21 | 126
17 | CC(=O)N1CCCC(c2cc3cc(C(=O)N4CCC(N5C(=O)OCc6ccccc65)CC4)ccc3o2)C1 (centres undefined) | 200
18 | CN(CCn1ccc2cc(C(=O)N3CCC(N4C(=O)OCc5ccccc54)CC3)ccc21)S(C)(=O)=O | 39.8
19 | CC(=O)NCCc1cc2cc(C(=O)N3CCC(N4C(=O)OCc5ccccc54)CC3)ccc2o1 | 39.8
20 | Cc1c(C)n(C[C@H]2CCCN2S(C)(=O)=O)c2ccc(C(=O)N3CCC(N4C(=O)OCc5ccccc54)CC3)cc12 | 398

Row | SMILES | Ki [nM]
21 | O=C(Cc1cccnc1)NCc1cc2cc(C(=O)N3CCC(N4C(=O)OCc5ccccc54)CC3)ccc2o1 | 25.1
22 | CN(Cc1cc2cc(C(=O)N3CCC(N4C(=O)OCc5ccccc54)CC3)ccc2o1)C(=O)CN1C(=O)CNC1=O | 25.1
23 | O=C(c1ccc2[nH]ccc2c1)N1CCC(N2C(=O)OCc3ccccc32)CC1 | 200
24 | CC(=O)NCc1cc2cc(C(=O)N3CCC(N4C(=O)OCc5ccccc54)CC3)ccc2o1 | 63.1
25 | O=C(CN1C(=O)CNC1=O)NCc1cc2cc(C(=O)N3CCC(N4C(=O)OCc5ccccc54)CC3)ccc2o1 | 6.31
26 | CC(=O)N1CCC(c2cc3cc(C(=O)N4CCC(N5C(=O)OCc6ccccc65)CC4)ccc3o2)CC1 | 63.1
27 | O=C(c1ccc2[nH]ccc2n1)N1CCC(N2C(=O)OCc3ccccc32)CC1 | 794
28 | Cc1nc(-c2cccs2)ncc1C(=O)N1CCC(N2C(=O)OCc3ccccc32)CC1 | 158
29 | O=C(c1ccc2ccoc2c1)N1CCC(N2C(=O)OCc3ccccc32)CC1 | 398
30 | CC1OC(=O)N(CC(=O)NCc2cc3cc(C(=O)N4CCC(N5C(=O)OCc6ccccc65)CC4)ccc3o2)C1=O (centres undefined) | 25.1
31 | CC(=O)NCCn1ccc2cc(C(=O)N3CCC(N4C(=O)OCc5ccccc54)CC3)ccc21 | 398
32 | CS(=O)(=O)N1CCC[C@@H]1Cc1coc2cc(C(=O)N3CCC(N4C(=O)OCc5ccccc54)CC3)ccc12 | 200
33 | CS(=O)(=O)N1CCC(c2cc3cc(C(=O)N4CCC(N5C(=O)OCc6ccccc65)CC4)ccc3o2)CC1 | 79.4
34 | Cc1nc(-c2ccncc2)sc1C(=O)N1CCC(N2C(=O)OCc3ccccc32)CC1 | 126
35 | O=C(c1ccc2ncsc2c1)N1CCC(N2C(=O)OCc3ccccc32)CC1 | 794
36 | CC(=O)N1CCC[C@@H]1c1cc2cc(C(=O)N3CCC(N4C(=O)OCc5ccccc54)CC3)ccc2o1 | 25.1
37 | CN(CCn1cnc2cc(C(=O)N3CCC(N4C(=O)OCc5ccccc54)CC3)ccc21)S(C)(=O)=O | 398
38 | Cc1cc2cc(C(=O)N3CCC(N4C(=O)OCc5ccccc54)CC3)ccc2[nH]1 | 126
39 | Cc1cc(C(=O)N2CCC(N3C(=O)OCc4ccccc43)CC2)cc2ccn(C[C@H]3CCCN3S(C)(=O)=O)c12 | 10
40 | O=C(CN1CCCC1=O)NCc1cc2cc(C(=O)N3CCC(N4C(=O)OCc5ccccc54)CC3)ccc2o1 | 25.1

Test system: not listed separately
Assay: Bioavailability in dog
Format: ADME, organism-based, Canis lupus familiaris
Settings: in vivo

Row | SMILES | bioavailability [%]
41 | CS(=O)(=O)N1CCN(Cc2cc3cc(C(=O)N4CCC(N5C(=O)OCc6ccccc65)CC4)ccc3o2)CC1 | 100
42 | CC(=O)NCC(=O)NCc1cc2cc(C(=O)N3CCC(N4C(=O)OCc5ccccc54)CC3)ccc2o1 | 16
43 | CC(=O)N1CCN(Cc2cc3cc(C(=O)N4CCC(N5C(=O)OCc6ccccc65)CC4)ccc3o2)CC1 | 44
44 | CC(=O)NCCc1cc2cc(C(=O)N3CCC(N4C(=O)OCc5ccccc54)CC3)ccc2o1 | 27
45 | CN(Cc1cc2cc(C(=O)N3CCC(N4C(=O)OCc5ccccc54)CC3)ccc2o1)C(=O)CN1C(=O)CNC1=O | 12
46 | O=C(CN1C(=O)CNC1=O)NCc1cc2cc(C(=O)N3CCC(N4C(=O)OCc5ccccc54)CC3)ccc2o1 | 8
47 | CC(=O)N1CCC(c2cc3cc(C(=O)N4CCC(N5C(=O)OCc6ccccc65)CC4)ccc3o2)CC1 | 49
48 | CS(=O)(=O)N1CCC(c2cc3cc(C(=O)N4CCC(N5C(=O)OCc6ccccc65)CC4)ccc3o2)CC1 | 69

Biological target: T1, Oxytocin receptor
Assay: Compound was tested for its ability to displace [3H]oxytocin from human Oxytocin receptor
Settings: not given

Row | SMILES | Ki [nM]
49 | CS(=O)(=O)N1CCC[C@H]1Cn1ccc2cc(C(=O)N3CCC(N4C(=O)OCc5ccccc54)CC3)ccc21 | 126

Test system: not listed separately
Assay: The pharmacokinetic parameter, clearance was reported in dog after intravenous administration
Format: ADME, organism-based, Canis lupus familiaris
Settings: in vivo

Row | SMILES | clearance [mL/min/kg]
50 | CN1CC(=O)N(CC(=O)NCc2cc3cc(C(=O)N4CCC(N5C(=O)OCc6ccccc65)CC4)ccc3o2)C1=O | 20
51 | CN1CCC(=O)N(CC(=O)NCc2cc3cc(C(=O)N4CCC(N5C(=O)OCc6ccccc65)CC4)ccc3o2)C1=O | 27
52 | CS(=O)(=O)N1CCN(Cc2cc3cc(C(=O)N4CCC(N5C(=O)OCc6ccccc65)CC4)ccc3o2)CC1 | 7
53 | CC(=O)NCC(=O)NCc1cc2cc(C(=O)N3CCC(N4C(=O)OCc5ccccc54)CC3)ccc2o1 | 18
54 | CC1(C)NC(=O)N(CC(=O)NCc2cc3cc(C(=O)N4CCC(N5C(=O)OCc6ccccc65)CC4)ccc3o2)C1=O | 20
55 | CC(=O)N1CCN(Cc2cc3cc(C(=O)N4CCC(N5C(=O)OCc6ccccc65)CC4)ccc3o2)CC1 | 11
56 | CC(=O)NCCc1cc2cc(C(=O)N3CCC(N4C(=O)OCc5ccccc54)CC3)ccc2o1 | 9
57 | O=C(Cc1cccnc1)NCc1cc2cc(C(=O)N3CCC(N4C(=O)OCc5ccccc54)CC3)ccc2o1 | 49
58 | CN(Cc1cc2cc(C(=O)N3CCC(N4C(=O)OCc5ccccc54)CC3)ccc2o1)C(=O)CN1C(=O)CNC1=O | 15
59 | CC(=O)NCc1cc2cc(C(=O)N3CCC(N4C(=O)OCc5ccccc54)CC3)ccc2o1 | 8
60 | O=C(CN1C(=O)CNC1=O)NCc1cc2cc(C(=O)N3CCC(N4C(=O)OCc5ccccc54)CC3)ccc2o1 | 17
61 | CC(=O)N1CCC(c2cc3cc(C(=O)N4CCC(N5C(=O)OCc6ccccc65)CC4)ccc3o2)CC1 | 6
62 | CS(=O)(=O)N1CCC(c2cc3cc(C(=O)N4CCC(N5C(=O)OCc6ccccc65)CC4)ccc3o2)CC1 | 9
63 | CC(=O)N1CCC[C@@H]1c1cc2cc(C(=O)N3CCC(N4C(=O)OCc5ccccc54)CC3)ccc2o1 | 31
64 | O=C(CN1CCCC1=O)NCc1cc2cc(C(=O)N3CCC(N4C(=O)OCc5ccccc54)CC3)ccc2o1 | 34
